From article PMC4414144, “Plasmin releases the anti-tumor peptide from the NC1 domain of collagen XIX” (Oncotarget, 2015)
Entries after “also recorded” stand apart in the source; their conditions may differ.

Key:
plasmin [1] = experiment: P36 peptide digestion in SKMEL28 melanoma cell cultures; type: cell-based, human; conditions: MALDI-ToF MS
Procedure: (§1) Human melanoma cell line (SKMEL28) was purchased from the American Type Culture Collection (ATCC, Manassas, VA). Cells were grown in Dulbecco's Modified Eagle's medium (DMEM) supplemented with 10% Fetal Bovine Serum (FBS), 1% penicillin and streptomycin (PenStrep®, Gibco®, France) in Nunclon® 75 cm^2 flasks (Dutscher, Brumath, France) at 37°C in a humid atmosphere (5% CO2, 95% air). Murine melanoma B16F1 cells, were a generous gift of Dr. M. Grégoire (INSERM UMRS 419, Nantes, France). They were grown in RPMI 1640 medium supplemented with 5% FBS in Nunclon 25 cm^2 flasks at 37°C in a humid atmosphere (5% CO2, 95% air). All culture media and reagents were purchased from Life Technologies (Invitrogen, Strasbourg, France).
SKMEL28 were incubated in DMEM with 20 μL plasminogen (40 μg/mL) and/or 20 μL plasmin (10 μg/mL) and/or aprotinin (10^−5 M) and P36 peptide. Samples were analyzed using HPLC and Matrix Assisted Laser Desorption Ionisation – Time of flight protocol (MALDI-ToF) as described below.
siRNA specific to human tPA (FlexiTube GeneSolution for PLAT) was purchased from Qiagen (Courtaboeuf, France). The siRNA target different regions of the tPA mRNA: 1st siRNA target sequence (5′-[…]-3′), 2nd siRNA target sequence (5′-[…]-3′), 3rd siRNA target sequence (5′-[…]-3′) and 4th siRNA target sequence (5′-[…]-3′). Exponentially growing SKMEL28 cells were transfected with siRNA pools (20 nM) using lipofectamine™ 2000. Decrease of tPA mRNA expression was assessed by RT-qPCR at 48 h after transfection. Decrease of tPA protein expression was monitored by zymography and immunocytofluorescence 72 h after siRNA transfection. Cells were subjected to plasminogen treatment for P36 peptide cleavage 24 h after transfection.

[2] = Intra-chain disulfide bond formation in solution; type: physicochemical; conditions: for Time for spontaneous intra-chain disulfide bond formation (C^1123-C^1128): in solution; for Intra-chain disulfide bond formation Cys^1123-Cys^1128: in solution over the time, MALDI-ToF MS
Procedure: (§2) Solutions of matrix α–cyano-4-hydroxycinnamic acid (CHCA) was prepared as a saturated solution in ACN/water (1/1; v/v) containing 0.1% TFA (10 mg/mL). Samples were prepared at a concentration of 10 pmol/μL in water containing 0.1% TFA. Typically, 1 μL of the matrix was pipetted on the MALDI target plate. Then 1 μL of analyte was added and air-dried for MALDI-ToF MS analysis.
(§3) MS experiments were performed using micromass MALDITM–LR time-of-flight mass spectrometer (Waters MS technologies, Manchester, UK) equipped with a nitrogen UV laser (337 nm wavelength), reflectron optics, a fast dual micro-channel plate (MCP) detector and a high magnification camera system. Positive ion spectra were acquired in reflectron mode. The following voltages were applied: pulse 1940 V, MCP 2380 V, suppression 500, flight tube 12000 V, reflectron 5200 V. A time lag focusing (TLF) delay of 680 ns was used between the time of laser pulse and the application of the accelerating voltage. Samples were analyzed in reflectron acquisition mode in the mass range 550-4000 Da. Mass calibration was performed using a peptide mixture composed of Bradykinin fragment 1–5 (573.31 Da), human Angiotensin II (1046.54 Da), Neurotensin (1672.92 Da), ACTH clip (2465.20 Da), bovine Insulin ß-chain oxidized (3494.65 Da) and bovine Insulin (5730.61 Da).

SKMEL28 cells = experiment: Scratch wound assay; type: cell-based, human; conditions: F4 200 μg/mL, p < 0.05 vs control, five experiments
Procedure: as §1
SKMEL28 cells (5 × 10^4 per well) were seeded in 24-well plates and cultivated to confluence in DMEM supplemented with 5% FBS. The cell layer was then wounded with a sterile 100 to 1000 μL pipet tip and re-incubated in fresh culture medium in the absence or presence of F4 peptide. After 24 h, 48 h or 72 h, cells were photographed and the size of the remaining wound measured.

B16F1 cells = experiment: In vivo murine melanoma model, tumor growth; parameters: species or system mouse (murine B16F1 melanoma in C57Bl6 mice); conditions: day 15; B16F1 cells pre-incubated 30 min with F4, s.c.; re-injected i.p. day 7 and 14; ten mice; p < 0.05 vs controls
Procedure: as §1
C57Bl6 mice (average body weight: 16–18 g) were purchased from Harlan France (Gannat, France). The in vivo experiments were conducted according to the ethical guidelines of the Centre National de la Recherche Scientifique (CNRS). In vivo melanoma model was previously described (Ramont et al., 2007). Briefly, 2.5 × 10^5 B16F1 cells, pre-incubated (30 min) with either control medium or F4 peptide, were subcutaneously injected into the left side of 10 syngenic C57BL6 mice. Treatments were re-injected intraperitoneally at day 7 and 14. Tumor size was measured regularly.

MMP-2 = experiment: P36 peptide cleavage by MMP-2; type: biochemical; conditions: preliminary experiments, data not shown
MT1-MMP = experiment: P36 peptide cleavage by MT1-MMP; type: biochemical; conditions: preliminary experiments, data not shown
MMP-9 = experiment: P36 peptide cleavage by MMP-9; type: biochemical; conditions: preliminary experiments, data not shown
plasmin [3] = target: T1, plasmin (Homo sapiens, UniProt P00747); experiment: P36 peptide digestion in vitro by plasmin (HPLC, MALDI-ToF MS); type: biochemical; conditions: for Effect on P36 peptide plasmin digestion: 16 h, E:S 1:50, HPLC
T1 construct: purchased Merck, Darmstadt
Procedure: Lyophilized plasmin with a specific activity of 10 U/mg (Merck, Darmstadt, Allemagne) was dissolved in sterile water to a concentration of 1 mg/mL. In control sample, P36 peptide (6.79 × 10^−4 M) was incubated overnight at 37°C in a Tris-HCl buffer (150 mM NaCl, 5 mM CaCl2, 50 mM Tris-HCl, pH 7.5). […] Aliquots were analyzed by HPLC as described below.
Dose-dependent digestion of P36 peptide by plasmin was measured by incubating P36 peptide 16 h at 37°C with different plasmin concentrations. Time-dependent analysis of P36 peptide cleavage by plasmin was obtained by incubating P36 with plasmin (E:S 1:50 at 37°C) during different time. Cleavage of the peptide was monitored by HPLC using method 1.
HPLC samples (20 μL of each sample with 30 μL of 0.1% trifluoroacetic acid) were injected on a Waters Alliance 2695 HPLC system, equipped with a photodiode array 2996 PDA detector, fraction collector III (WFC III) and the Empower^TM chromatography software for data acquisition (Milford, MA, USA). The column used was a EC 250/4 Nucleosil reversed phase (5 μm particle size, 100 Å pore size, 4 × 250 mm) which was protected by a guard column CC 8/4 Nucleosil 300-5 C4 (Macherey-Nagel, Düren, Germany). The injection volume was 20 μL and detection was performed at λ = 214 nm. Eluants were 0.1% trifluoroacetic acid in water (A) and 0.1% trifluoroacetic acid in 80% acetonitrile (B). The analyses followed a linear gradient program with a flow at 0.8 mL/min. Two method conditions were used:
as §2, §3

plasmin [4] = target: T1, plasmin; experiment: Kinetic analysis of P36 peptide cleavage by plasmin (KM, Kcat); type: biochemical; conditions: P36 8, 16, 32, 64 nM; 1.25 nM plasmin; 30 min, 37°C; HPLC; double-reciprocal plot
Procedure: Michaelis constant (KM) and first-order rate constant of substrate peptide turnover (Kcat) were obtained by digestion of P36 peptide (8, 16, 32, 64 nM), for 30 min at 37°C in the presence of 1.25 nM plasmin. Cleavage of the peptide was monitored by HPLC. From these measurements, Kcat and KM were calculated using double-reciprocal plot of 1/[S] versus 1/v.

MMP-1 = experiment: P36 peptide cleavage by MMP-1; type: biochemical; conditions: preliminary experiments, data not shown
[5] = tested on: experimental cancer models; conditions: cited from earlier work
Excerpt: The basement membrane is a complex structure mainly composed of laminins, nidogens, heparan sulfate proteoglycans (perlecan and/or agrin), and type IV collagen. More recently, associations between basement membrane and minor collagens such as type XVIII, XV or type XIX were reported and named basement membrane zone. These collagenous components associated with the basement membrane represent a dynamic interface between this structure and the stroma. Basement membrane has long been described as a simple architectural cell support. […] For instance, endostatin, the NC1 domain of type XVIII collagen, is released by many proteases such as MMP-3, 7, 9, 12, 13, 20 [14, 35, 36], or cathepsins B, L, S, V [37, 38, 39]. […] Tumstatin, the NC1 domain of type IV collagen is generated in vivo by MMP-9 [7]. It exerts anti-tumor and anti ...

plasmin [6] = experiment: Plasmin activity measurement in SKMEL28 culture, chromogenic substrate S-2251; type: cell-based, human; conditions: SKMEL28 with plasminogen; S-2251 hydrolysis at 405 nm
Procedure: After washing with DPBS, cells were incubated in DMEM with/without 20 μL plasminogen (40 μg/mL) and/or 20 μL plasmin (10 μg/mL) and/or 20 μL plasmin chromogenic substrate (250 μg/mL). Hydrolysis of the S-2251 chromogenic substrate (Chromogenix, distributed by Hyphen Biomed, Neuville sur Oise, France) was measured at 405 nm at different time.

[7] = SKMEL28, plasminogen added (20 μL, 40 μg/mL)
[8] = SKMEL28, plasminogen + aprotinin (10^−5 M)
[9] = E:S 1:50, 37°C, 0, 5, 30, 60 min, HPLC method 1

T1 sequence (P00747 97-580 partner limits assumed, species assumed): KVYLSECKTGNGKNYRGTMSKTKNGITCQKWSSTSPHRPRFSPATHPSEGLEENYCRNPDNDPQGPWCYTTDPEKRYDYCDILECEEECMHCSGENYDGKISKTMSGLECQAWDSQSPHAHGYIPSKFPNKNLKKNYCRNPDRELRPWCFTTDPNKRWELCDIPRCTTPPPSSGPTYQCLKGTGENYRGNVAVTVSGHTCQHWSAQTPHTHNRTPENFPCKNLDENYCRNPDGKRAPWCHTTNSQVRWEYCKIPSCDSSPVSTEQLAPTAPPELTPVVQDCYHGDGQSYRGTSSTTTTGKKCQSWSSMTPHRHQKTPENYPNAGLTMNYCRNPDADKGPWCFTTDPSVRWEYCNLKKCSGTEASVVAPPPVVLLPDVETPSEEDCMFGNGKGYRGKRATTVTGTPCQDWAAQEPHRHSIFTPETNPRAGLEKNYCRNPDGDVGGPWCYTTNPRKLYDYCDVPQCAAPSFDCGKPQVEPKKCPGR
T1 sequence (P00747 581-810 limits assumed, species assumed): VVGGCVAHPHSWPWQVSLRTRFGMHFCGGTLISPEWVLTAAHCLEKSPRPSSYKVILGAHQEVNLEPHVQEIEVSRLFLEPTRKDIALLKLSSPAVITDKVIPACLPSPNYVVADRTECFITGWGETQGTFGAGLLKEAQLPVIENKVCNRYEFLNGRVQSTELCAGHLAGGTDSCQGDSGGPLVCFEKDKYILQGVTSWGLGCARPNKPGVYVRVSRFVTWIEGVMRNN

Substance: CNPEDCLYPVSHAHQR [F4]
- Release of fragments / cleavage of P36 in cell culture (plasmin [1]; SKMEL28, no added plasminogen): no release
- Release of fragments / cleavage of P36 in cell culture (plasmin [1]; [7]): released
- Time for spontaneous intra-chain disulfide bond formation (C^1123-C^1128) [2]: less than 1 h
- Intra-chain disulfide bond formation Cys^1123-Cys^1128 [2]: formed an intra-chain disulfide-bond
- Change in wound closure (SKMEL28 cells; 24 h): −53%
- Change in wound closure (SKMEL28 cells; 48 h): −39%
- Change in wound closure (SKMEL28 cells; 72 h): −36%
- Change in tumor growth (tumor volume) (B16F1 cells): −30%

Substance: SPGAPGPQGPPGPSGR [F2, … Col1 domain of P36 peptide]
- Release of fragments / cleavage of P36 in cell culture (plasmin [1]; SKMEL28, no added plasminogen): no release
- Release of fragments / cleavage of P36 in cell culture (plasmin [1]; [7]): released

Substance: (SPGAPGPQGPPGPSGRC) and the totality of the C-terminal NC1(XIX) domain (NPEDCLYPVSHAHQRTGGN) [P36, synthetic peptide composed of the last 36 residues of the human α1(XIX) chain]
- Release of fragments / cleavage of P36 in cell culture (plasmin [1]; SKMEL28, no added plasminogen): no cleavage of P36 peptide occurred
- Cleavage of P36 in cell culture in presence of aprotinin (plasmin [1]; [8]): no cleavage of P36 occurred
- Release of fragments / cleavage of P36 in cell culture (plasmin [1]; [7]): P36 peptide disappeared
- Time for spontaneous intra-chain disulfide bond formation (C^1123-C^1128) [2]: less than 1 h
- Intra-chain disulfide bond formation Cys^1123-Cys^1128 [2]: formed an intra-chain disulfide-bond
- Cleavage of P36 by MMP-2 (MMP-2): Neither MMP-1, MMP-2, MMP-9 nor MT1-MMP were capable to cleave the P36 peptide
- Cleavage of P36 by MT1-MMP (MT1-MMP): Neither MMP-1, MMP-2, MMP-9 nor MT1-MMP were capable to cleave the P36 peptide
- Cleavage of P36 by MMP-9 (MMP-9): Neither MMP-1, MMP-2, MMP-9 nor MT1-MMP were capable to cleave the P36 peptide
- Dependence of digestion on time (plasmin [3]; [9]): time-dependent
- Time at which P36 peptide was cleaved by plasmin (plasmin [3]; [9]): ≤ 5 min
- Plasmin cleavage site (plasmin [3]; E:S 1:50, 16 h, 37°C, Tris-HCl pH 7.5, MALDI-ToF MS): Arg1138-Thr1139; also recorded: Arg1122-Cys1123
- Dependence of digestion on plasmin dose (plasmin [3]; plasmin 1:50 to 1:400, overnight/16 h, 37°C, HPLC method 1): dose-dependent
- Kcat (plasmin [4]): 0.077 s⁻¹
- Cleavage of P36 by MMP-1 (MMP-1): Neither MMP-1, MMP-2, MMP-9 nor MT1-MMP were capable to cleave the P36 peptide

Substance: endostatin
- Anti-tumor properties ([5]; number of experimental cancer models, ref [7], [43]): exerts significant anti-tumor properties
- Metastatic potential of cells ([5]; ref [38]): reduces metastatic potential of cells

Substance: aprotinin [reference compound]
- Effect of aprotinin on release of F2, F3 and F4 (plasmin [1]; [8]): abolished this release
- Inhibition of plasmin activity (plasmin [6]): completely inhibited plasmin activity
- Effect on P36 peptide plasmin digestion (plasmin [3]; aprotinin 10^−5 M, 37°C): completely abolished
- Effect on P36 peptide plasmin digestion (plasmin [3]; aprotinin 10^−6 M, 37°C): completely abolished
- Effect on P36 peptide plasmin digestion (plasmin [3]; aprotinin 10^−7 M, 37°C): not sufficient to prevent it
